How the values were obtained:
[1] = tested on: FaDu; experiment: Growth delay assay, FaDu; format: cell-based; conditions: FaDu cells, 96 hours after addition of drug, cell count (Hoechst)
Experimental: (§1) Cells were plated in 96 well black walled-clear bottom plates (Griener), DLD-1 WT cells at 2500 cells per well, FaDu, and HeLa cells at 5000 cells per well, and HCT116 at 3000 cells per well, in growth media containing […]. Cells were allowed to adhere at room temperature for 60 minutes before returning to a 37 C, 5% CO2 incubator. After 24 hours, media was removed and replaced with fresh growth media containing various drug concentrations. Each drug concentration was added in triplicate. Non-drug treated controls contained growth media only. Cells were returned to the incubator. Ninety-six hours after addition of drug, cells were fixed with […] for 20 minutes and stained with Hoechst at 1 μg/mL. The plates were imaged on a Cytation 5 auto imager (BioTek) and cells were counted using CellProfiler (http://cellprofiler.org). The percent cell growth delay was calculated and data plotted using GraphPad Prism

[2] = tested on: HeLa cells; experiment: Growth delay assay, HeLa; format: cell-based; conditions: 96 hours after addition of drug, cell count (Hoechst)
Experimental: as §1

[3] = tested on: DLD-1 WT cells; experiment: Growth delay assay, DLD-1; format: cell-based; conditions: DLD-1 cells, 96 hours after addition of drug, cell count (Hoechst)
Experimental: as §1

[4] = tested on: HCT116; experiment: Growth delay assay, HCT116; format: cell-based, human; conditions: HCT116 cells, 96 hours after addition of drug, cell count (Hoechst)
Experimental: as §1

[5] = tested on: nude mice bearing HCT116 colorectal flank tumors; experiment: Mouse colorectal cancer model, Kaplan-Meier survival; format: in vivo; conditions: IP, QDX4; DM4 0.42 μmole/kg; Compound 5 0.21-0.42 μmole/kg; post-dosing period
Experimental: Six-week-old female athymic nude Foxn^nu mice were obtained from Taconic Labs (Cat #NCRNU-F) and were housed 5 per cage on Alpha-Dri bedding in a disposable caging system. Human HCT116 cells derived from colorectal carcinoma were diluted 1:1 in Phenol Red-free Matrigel and subcutaneously implanted into the left flank of each mouse at a density of 2.5×10^6 cells in 100 μL. When xenografts reached a mean volume of 100-200 mm^3, mice were randomized into groups and treated as detailed in the table below. Mice were administered intraperitoneal (IP) doses of vehicle or 0.21, 0.29, 0.35, 0.42 μmole/kg Compound 5 (equivalent to 1.1, 1.4, 1.7, or 2 mg/kg Compound 5) or 0.42 μmole/kg unconjugated DM4 (equivalent to 0.33 mg/kg unconjugated DM4). Doses were prepared by diluting 0.1 mg/μL DMSO stocks in 5% mannitol in citrate buffer and were administered QDX4 with a two day interval between the second and third doses, at a volume of 12 mL/kg (300 μL per 25 g mouse). Xenograft tumors were measured by calipers and volume was calculated using the equation for ellipsoid volume: Volume=π/6×(length)×(width)^2. Body weight of animals was measured at the same time as tumor volume assessment. Animals were removed from the study due to death, tumor size exceeding 2000 mm^3 or loss of >20% body weight. Kaplan-Meier analysis was used to evaluate survival rate based on death or removal from study.

[6] = tested on: T1, Biotin-labeled human tubulin derived from HeLa cells (β-tubulin); experiment: Kinetic analysis of conjugate binding (Biacore surface plasmon resonance); conditions: Biacore S200, 25° C., immobilized tubulin; read-out: KD (affinity constant, steady state) for β-tubulin
T1 construct: fused on or other part: Biotin label, used for capture on a streptavidin sensor chip
Experimental: Binding experiments were performed using a Biacore S200 instrument. A Series S sensor chip with pre-immobilized streptavidin was conditioned with 1 M NaCl in 50 mM NaOH. Biotin-labeled human tubulin derived from HeLa cells was immobilized to the sensor chip at a concentration of 125 μg/mL in HBS-P+ buffer at a flow rate of 10 μl/min. A final 3000 RU (response units) of protein was directly immobilized to the chip. After tubulin immobilization, the sensor chip was washed with 50% isopropanol, 50 mM NaOH and 1 M NaCl and subsequently allowed to equilibrate in assay buffer for 4 hours. A streptavidin-biotin capture blank (reference FC) was used to monitor non-specific binding.
To collect kinetic binding data, Compound 5 diluted in assay buffer was injected over the flow cells at concentrations ranging from 100 μM to 0.048 μM and 50 μM to 0.024 μM, at a flow rate of 60 μL/minute and a temperature of 25° C. The complex was allowed to dissociate for 60 seconds. Binding of compound to tubulin was monitored in real time to obtain on (Ka) and off (Koff) rates. The affinity constant (KD) was calculated by steady state kinetics.

COc1cc2cc(c1Cl)N(C)C(=O)C[C@H](OC(=O)[C@H](C)N(C)C(=O)CCSSC[C@H](NC(=O)[C@H](Cc1c[nH]c3ccccc13)NC(=O)[C@H](CC(C)C)NC(=O)[C@H](CC(C)C)NC(=O)[C@H](CC(=O)O)NC(=O)[C@H](CC(C)C)NC(=O)[C@H](CC(C)C)NC(=O)[C@H](CC(C)C)NC(=O)[C@@H](NC(=O)[C@H](CC(=O)O)NC(=O)[C@@H](NC(=O)[C@@H]1CCCN1C(=O)[C@H](Cc1ccccc1)NC(=O)[C@H](CC(C)C)NC(=O)[C@H](CC(C)C)NC(=O)[C@H](CC(=O)O)NC(=O)[C@H](CC(C)C)NC(=O)[C@H](Cc1ccc(O)cc1)NC(=O)[C@H](C)NC(=O)[C@H](CCCNC(=N)N)NC(=O)[C@H](Cc1c[nH]c3ccccc13)NC(=O)[C@@H]1CCCN1C(=O)[C@H](CC(N)=O)NC(=O)[C@H](CCC(N)=O)NC(=O)[C@H](CC(=O)O)NC(=O)[C@H](CC(=O)O)NC(=O)[C@H](C)N)[C@@H](C)O)[C@@H](C)O)C(=O)NCC(=O)O)[C@]1(C)O[C@H]1[C@H](C)[C@@H]1C[C@@](O)(NC(=O)O1)[C@H](OC)/C=C/C=C(\C)C2 [Compound 1]
IC50 [1]: 10.4 nM | IC50 [2]: 7.4 nM | IC50 [3]: 60.5 nM | IC50 [4]: 21.8 nM

COc1cc2cc(c1Cl)N(C)C(=O)C[C@H](OC(=O)[C@H](C)N(C)C(=O)CCS)C1(C)O[C@H]1[C@H](C)[C@@H]1C[C@@](O)(NC(=O)O1)[C@H](OC)/C=C/C=C(\C)C2 (stereo partly drawn) [R^2SH-1, [(1S,2R,3S,6S,16E,18E,20R,21S)-11-chloro-21-hydroxy-12,20-dimethoxy-2,5,9,16-tetramethyl-8,23-dioxo-4,24-dioxa-9,22-diazatetracyclo[19.3.1.110,14.03,5]hexacosa-10(26),11,13,16,18-pentaen-6-yl] (2S)-2-[methyl(3-sulfanylpropanoyl)amino]propanoate]
IC50 ([1]; Homo sapiens): 2.8 nM | IC50 ([2]; Homo sapiens): 2.6 nM | IC50 ([3]; Homo sapiens): 9.8 nM | IC50 ([4]; Homo sapiens, HCT-116): 4.3 nM

COc1cc2cc(c1Cl)N(C)C(=O)C[C@H](OC(=O)[C@H](C)N(C)C(=O)CCC(C)(C)SSC[C@H](NC(=O)[C@H](Cc1c[nH]c3ccccc13)NC(=O)[C@H](CC(C)C)NC(=O)[C@H](CC(C)C)NC(=O)[C@H](CC(=O)O)NC(=O)[C@H](CC(C)C)NC(=O)[C@H](CC(C)C)NC(=O)[C@H](CC(C)C)NC(=O)[C@@H](NC(=O)[C@H](CC(=O)O)NC(=O)[C@@H](NC(=O)[C@@H]1CCCN1C(=O)[C@H](Cc1ccccc1)NC(=O)[C@H](CC(C)C)NC(=O)[C@H](CC(C)C)NC(=O)[C@H](CC(=O)O)NC(=O)[C@H](CC(C)C)NC(=O)[C@H](Cc1ccc(O)cc1)NC(=O)[C@H](C)NC(=O)[C@H](CCCNC(=N)N)NC(=O)[C@H](Cc1c[nH]c3ccccc13)NC(=O)[C@@H]1CCCN1C(=O)[C@H](CC(N)=O)NC(=O)[C@H](CCC(N)=O)NC(=O)[C@H](CC(=O)O)NC(=O)[C@H](CC(=O)O)NC(=O)[C@H](C)N)[C@@H](C)O)[C@@H](C)O)C(=O)NCC(=O)O)[C@]1(C)O[C@H]1[C@H](C)[C@@H]1C[C@@](O)(NC(=O)O1)[C@H](OC)/C=C/C=C(\C)C2 [Compound 5]
survival / systemic toxicity (Kaplan-Meier) [5]: safely delivers amounts of DM4 in vivo

COc1cc2cc(c1Cl)N(C)C(=O)C[C@H](OC(=O)[C@H](C)N(C)C(=O)CCC(C)(C)S)C1(C)O[C@H]1[C@H](C)[C@@H]1C[C@@](O)(NC(=O)O1)[C@H](OC)/C=C/C=C(\C)C2 (stereo partly drawn) [R^2SH-2, [(1S,2R,3S,6S,16E,18E,20R,21S)-11-chloro-21-hydroxy-12,20-dimethoxy-2,5,9,16-tetramethyl-8,23-dioxo-4,24-dioxa-9,22-diazatetracyclo[19.3.1.110,14.03,5]hexacosa-10,12,14(26),16,18-pentaen-6-yl] (2S)-2-[methyl-(4-methyl-4-sulfanyl-pentanoyl)amino]propanoate]
IC50 ([1]; Homo sapiens): 0.13 nM | Kd [6]: 3550 nM | IC50 ([2]; Homo sapiens): 0.02 nM | survival / systemic toxicity (Kaplan-Meier) [5]: spontaneous death of half of the DM4 group of animals | IC50 ([3]; Homo sapiens): 0.45 nM | IC50 ([4]; Homo sapiens, HCT-116): 0.2 nM

Reference: patent US12234212B2, “Peptide conjugates of microtubule-targeting agents as therapeutics” (Cybrexa 3, Inc., priority 2019, dated 2025)
